“Also recorded” adds a separate entry of the source. Read-outs that look alike come from different tables or passages of the source.
Key:
CDK8/CycC = target: T1, CDK8/CycC (Homo sapiens, UniProt P49336); assay: In vitro kinase inhibition assay (Reaction Biology HotSpot, 10 dose IC50 singlet); format: biochemical; conditions: for IC50 / inhibition at 20 µM: CDK8/CycC; for IC50: 10 dose IC50 singlet assay; for inhibition at 20 µM: compound at 20 µM, read-out: % enzyme inhibition ± SD (20 µM)
T1 construct: purchased Reaction Biology Corp. (Kinase HotSpot service)
Description: Reaction Biology Corp. Kinase HotSpotSM service (http://www.reactionbiology.com) was used for the screening of tested compounds. […] Activity of kinases were assessed by the HotSpot assay platform, which contained specific kinase/substrate pairs along with required cofactors ([Abdelazem et al., 2015]; [Abdelazem et al., 2016]; [Al-Sanea et al., 2016a]; [Al-Sanea et al., 2015a]; [Al-Sanea et al., 2015b]; [Al-Sanea, El-Deeb & Lee, 2013]; [Park et al., 2014]).
The newly prepared phenylaminoquinolines 5a–i were biologically evaluated as potential CDK8/CycC complex inhibitors.

CDK8 = conditions: cited from earlier work
[1] = test system: acute myeloid leukemia (AML); design: method as in earlier work; conditions: ref Cee et al., 2009, Crown, 2017, Pelish et al., 2015, Rzymski et al.; cited from earlier work

T1 sequence (P49336 whole entry): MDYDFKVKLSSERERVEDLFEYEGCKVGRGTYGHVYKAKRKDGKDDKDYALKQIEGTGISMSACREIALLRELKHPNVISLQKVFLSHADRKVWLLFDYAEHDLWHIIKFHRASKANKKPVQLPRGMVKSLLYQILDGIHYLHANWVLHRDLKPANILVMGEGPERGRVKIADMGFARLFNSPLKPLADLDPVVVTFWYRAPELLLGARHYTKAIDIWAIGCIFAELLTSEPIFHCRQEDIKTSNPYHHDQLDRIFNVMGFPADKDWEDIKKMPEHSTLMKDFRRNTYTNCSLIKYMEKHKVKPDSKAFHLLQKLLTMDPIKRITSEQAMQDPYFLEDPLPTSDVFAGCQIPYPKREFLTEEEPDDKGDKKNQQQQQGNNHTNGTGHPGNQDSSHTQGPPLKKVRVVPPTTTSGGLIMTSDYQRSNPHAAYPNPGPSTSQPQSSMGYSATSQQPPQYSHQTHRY
T1 sequence (P24863 whole entry partner): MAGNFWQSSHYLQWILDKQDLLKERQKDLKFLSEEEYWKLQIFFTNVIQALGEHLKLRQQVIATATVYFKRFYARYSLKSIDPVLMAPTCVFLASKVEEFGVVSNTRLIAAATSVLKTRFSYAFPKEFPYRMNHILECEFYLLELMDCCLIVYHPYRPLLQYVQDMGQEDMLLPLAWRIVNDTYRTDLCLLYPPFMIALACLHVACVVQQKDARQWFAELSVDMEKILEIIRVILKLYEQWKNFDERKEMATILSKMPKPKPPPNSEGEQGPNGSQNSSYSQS

| IC50 (CDK8/CycC; read-out: IC50) [nM] | inhibition at 20 µM (CDK8/CycC) [%] | IC50 (CDK8/CycC) | SMILES | other results |
| --- | --- | --- | --- | --- |
| 1420 | 85.9 ± 0.94 | – | CCOC(=O)c1cnc2ccc(OC)cc2c1Nc1cccc(NS(C)(=O)=O)c1 [5e, Ethyl 6-methoxy-4-((3-(methylsulfonamido)phenyl)amino)quinoline-3-carboxylate] | – |
| 3980 | 83.9 ± 1.83 | single digit micromolar potency | CCOC(=O)c1cnc2ccc(Br)cc2c1Nc1cccc(S(N)(=O)=O)c1 [5a, Ethyl 6-Bromo-4-(3-sulfamoyl-phenylamino)-quinoline-3-carboxylate] | fold decrease in potency relative to 5d (CDK8/CycC; CDK8/CycC IC50 of 5a compared with 5d): 6 fold; melting point: 235.6 to 237.2 °C |
| 639 | 88.6 ± 0.97 | – | CCOC(=O)c1cnc2ccc(Br)cc2c1Nc1cccc(S(=O)(=O)NC)c1 [5d, Ethyl 6-Bromo-4-((3-(N-methylsulfamoyl)phenyl)amino)quinoline-3-carboxylate] | melting point: 212.9 to 214.3 °C |
| – | 37.9 ± 1.31 | failed to inhibit | CCOC(=O)c1cnc2cc(Cl)c(F)cc2c1Nc1cccc(S(N)(=O)=O)c1 [5c, Ethyl 7-chloro-6-fluoro-4-((3-sulfamoylphenyl)amino)quinoline-3-carboxylate] | – |
| – | 18.7 ± 0.48 | No inhibition | CCOC(=O)c1cnc2ccc(OC)cc2c1Nc1cccc(S(C)(=O)=O)c1 [5h, Ethyl 6-methoxy-4-((3-(methylsulfonyl)phenyl)amino)quinoline-3-carboxylate] | – |
| 5340 | 63.4 ± 2.31 | single digit micromolar potency | CCOC(=O)c1cnc2ccc(OC)cc2c1Nc1cccc(S(N)(=O)=O)c1 [5b, Ethyl 6-methoxy-4-((3-sulfamoylphenyl)amino)quinoline-3-carboxylate] | – |

Further lines, the compound ahead of its results:

| SMILES | IC50 (CDK8/CycC; read-out: IC50) [nM] | inhibition at 20 µM (CDK8/CycC) [%] | IC50 (CDK8/CycC) | other results |
| --- | --- | --- | --- | --- |
| CN1CCN(C(=O)c2ccc3cc(CCNc4ncnc5ccc(C#N)cc45)ccc3c2)CC1 [Senexin B] | – | – | – | IC50 (CDK8; ref McDermott et al., 2017, Rzymski et al., 2015, read-out: CDK8 modulation IC50): 24 nM |
| CN(C)[C@H]1C[C@@]23CC[C@@]4(O2)C(=CC[C@]2(C)[C@@H](c5ccc6ccncc6c5)CC[C@H]24)C=C3[C@@H](O)[C@@H]1O [cortistatin A] | – | – | – | IC50 (CDK8; ATP-competitive, ref Cee et al., 2009, Crown, 2017, Pelish et al., 2015, Rzymski et al., read-out: CDK8 inhibitory activity IC50): 15 nM; anticancer activity in animal models of AML [1]: exhibited anticancer activity |
| CCOC(=O)c1cnc2cc(Cl)c(F)cc2c1Nc1cccc(NS(C)(=O)=O)c1 [5f, Ethyl 7-chloro-6-fluoro-4-((3-(methylsulfonamido)phenyl)amino)quinoline-3-carboxylate] | – | 27.2 ± 8.46 | failed to inhibit; also recorded: No inhibition | – |
| CCOC(=O)c1cnc2ccc(Br)cc2c1Nc1cccc(S(C)(=O)=O)c1 [5g, Ethyl 6-Bromo-4-(3-methanesulfonylphenylamino)-quinoline-3-carboxylate] | – | 22.4 ± 1.02 | no CDK8/CycC complex inhibitory activity; also recorded: No inhibition | – |
| CCOC(=O)c1cnc2cc(Cl)c(F)cc2c1Nc1cccc(S(C)(=O)=O)c1 [5i, Ethyl 7-chloro-6-fluoro-4-((3-(methylsulfonyl)phenyl)amino)quinoline-3-carboxylate] | – | 32 ± 0.82 | failed to inhibit; also recorded: No inhibition | – |

Source: article PMC7075364, “Synthesis and biological evaluation of small molecule modulators of CDK8/Cyclin C complex with phenylaminoquinoline scaffold” (PeerJ, 2020)
